Laboratory results reported in patent publication US7504401B2, “Anti-cancer agents and uses thereof” (Locus Pharmaceuticals, Inc., priority 2003, dated 2009).

What was measured:
Format in all cases: cell-based
[1] = system: MCF-7 breast cancer cells; test: Cell cycle assay, flow cytometry with propidium iodide, Example 126; settings: MCF-7 cells, 24 h, 0.5% FCS, Table 2
Experimental: (§1) MCF-7 breast cancer cells and Jurkat T-cell leukemic cells were grown (and maintained) in EMEM and RPMI media, respectively, containing 10% fetal calf serum.
Cells were allowed to adhere for 24 hrs. After adherence, cell culture media was changed to that containing 0.5% FCS. Thirty minutes post-media change, test compounds were added at a concentration of 1 μM. Twenty-fours after test agent addition, cells were analyzed for cell cycle status as described below.
(§2) Cell cycle status was analyzed by flow cytometry. Briefly, cells were collected and washed with FACs buffer (Pharmingen) and resuspended and fixed in 1 mL of 80% ethanol for 1 hr. Cells were washed with FACs buffer and resuspended in propidium iodide(PI)/RNase staining buffer (Pharmingen). PI is a fluorescent dye that labels nucleic acids such as DNA. The fluorescence within a cell (in the presence of PI) is proportional to the amount of DNA within a cell. The cell content of DNA is an indices of status in the cell cycle. […] Cells in the S phase have DNA content that lies between these extremes.
(§3) For testing of cell cycle effects of test agents the percentage of cells within the G1 and G2/M phase were measured.

[2] = system: Jurkat T-cell leukemic cells; test: as above; settings: 24 h, 0.5% serum, Table 2
Experimental: as §1
Test agents were added a concentration of 0.1 μM. Twenty-fours after test agent addition, cells were analyzed for cell cycle status as described below.
as §2, §3

Hela cells = test: Cell viability assay (WST-1 colorimetric mitochondrial reduction), Example 125; settings: Homo sapiens, 0.5% fetal calf serum, 48-72 hrs
Experimental: Jurkat and Hela cells were cultured in RPMI and EMEM media, respectively, containing 0.5% fetal calf serum. Cells were plated in a volume of 100 μL in a 96 well format. Test compounds were included in the culture media at concentrations ranging from 1 nM to 10 μM for a period of 48-72 hrs. […] Briefly, 10 μL of WST-1 reagent was included in the culture well for a period of 1 to 4 hrs. The WST-1 reaction was read on a multiwell spectrophotometer as the difference in the absorbance between 450 nm and 600 nm (baseline). Absorbance was proportional to the number of living cells in the culture well. Concentration response curves and IC50 values were calculated using GraphPAD Prism graphing and curve fitting program.

| IC50 (Hela cells) [µM] | Compound | MCF-7 G2/M Block 1 μM [1] | Jurkat G2/M Block 0.1 μM [2] |
| --- | --- | --- | --- |
|  | [O-][n+]1cccc(Nc2cc(O)cc(-c3cccc4[nH]ccc34)c2)c1 [3-(1H-Indol-4-yl)-5-(1-oxy-pyridin-3-ylamino)-phenol] | Y (Y indicates a 50% or greater increase in the number of cells in the G2/M phase, as compared to control) | Y (Y indicates a 50% or greater increase in the number of cells in the G2/M phase, as compared to control) |
| 1 to 30 | CC(=O)N(c1cccnc1)c1cccc(-c2cccc3[nH]ccc23)c1 [N-[3-(1H-Indol-4-yl)-phenyl]-N-pyridin-3-yl-acetamide] |  |  |
